Reference: US20260152724A1, “SMALL INTESTINE EPITHELIUM-LIKE CELLS AND PRODUCTION METHOD THEREOF” (OSAKA UNIVERSITY, priority 2022, published 2026)
Where two headings read alike, the source gives them in different places.

Assays:
[1] = test system: definitive endoderm cells; assay: Induction of differentiation from definitive endoderm cells into intestinal progenitor cells, marker gene expression by qRT-PCR (Example 1); format: cell-based, human; settings: 4 days
Description: This Example examined a differentiation-inducing action in a culture system containing each concentration of retinoic acid or a GSK3β inhibitor, which was known to be important in differentiation from definitive endoderm. To induce differentiation from definitive endoderm cells into intestinal progenitor cells, the medium B shown in Reference Example 2 was used as a basal medium.
Then, RNAs were recovered and analyzed for gene expression levels of an intestinal progenitor cell marker CDX2, a hepatic progenitor cell marker AFP, and a pancreatic progenitor cell marker PDX1 by quantitative RT-PCR (qRT-PCR). The quantitative RT-PCR was performed according to a common method. Total RNAS were recovered and CDNAS were synthesized. Complementary DNAs (cDNAs) were subjected to qRT-PCR with Fast SYBR Green Master Mix (Applied Biosystems) and quantification with StepOnePlus Real time PCR system (Applied Biosystems). A glyceraldehyde 3-phosphate dehydrogenase (GAPDH) gene was used as an internal standard gene. In addition, each gene expression level of DMSO-treated groups, which were controls, was set to 1.0. Data was shown with n=3, mean±standard deviation, but n=2 for each LY (10 nM and 30 nM). A detection limit was represented by N.D.

CYP3A4 [2] = assay: CYP3A4 activity of ELCs, P450-Glo CYP3A4 assay (Example 3); format: cell-based, human; settings: PD 3 μM in medium C for 10 days, PD(+) versus PD(−); Luciferin-IPA substrate, corrected by protein per well
Protocol: (§1) Further, CYP3A4 activity was checked. The CYP3A4 activity was measured with P450-Glo™ CYP3A4 Assay Kits (Promega Corporation). […] The CYP3A4 activity was corrected by the amount of a protein per well measured with BCA Protein Assay Kit (Thermo Fisher Scientific Inc.).

[3] = test system: intestinal progenitor cells; assay: MEK inhibitor in differentiation from intestinal progenitor cells into ELCs, gene expression by qRT-PCR (Example 3); format: cell-based, human; settings: PD 3 μM in medium C for 10 days, PD(+) versus PD(−); Conditions 2 and 3
Protocol: This Example investigated the action of a MEK inhibitor in a stage of inducing differentiation from intestinal progenitor cells into enterocyte-like cells (ELCs). PD0325901 (MedChemExpress LLC) was used as the MEK inhibitor. PD0325901 is sometimes abbreviated as PD in this Example and Examples described below. In a step from definitive endoderm cells to intestinal progenitor cells, culture e was performed under Conditions 2 and 3 shown in Table 3 in Example 2 according to the protocol illustrated in FIG. 3(1). […] Thus, the cells were induced to differentiate into enterocyte-like cells (ELCs). Subsequently, RNAs were recovered by the same procedure as in Example 1, and analyzed for each gene expression level of VIL1, CYP3A4, and MDR1 by qRT-PCR by the same method as in Example 2. Each gene expression level in an adult small intestine was set to 1.0. Data was shown with n=3, mean±standard deviation.

CYP3A4 [4] = assay: Elimination of a humoral factor from medium K in ELC monolayer culture, CYP3A4 activity (Example 9)
Protocol: as §1
This Example investigated an influence of a humoral factor in ELC monolayer culture. […] In this Example, culture was performed with addition of the medium to only an upper stage A in a cell culture insert (Corning Incorporated) used in monolayer culture (FIG. 9(1)).

P-gp = assay: Elimination of a humoral factor from medium K in ELC monolayer culture, P-gp activity (Example 9); format: cell-based, human; settings: ELC monolayer (day 27 2D K), 6 days in medium K without the factor; digoxin substrate
Protocol: P-gp is an efflux transporter, and its activity was measured by allowing 1 μM digoxin to act through use of digoxin, [^3H (G)]-(PerkinElmer) and digoxin (Asahi Kasei Corporation) as substrate compounds, and allowing 100 μM verapamil to act as an inhibitor.

[5] = RA at each concentration (3, 10, 20, 30 μM) in medium B, DMSO-treated group = 1.0

For Cc1c[nH]c(-c2cnc(NCCNc3ccc(C#N)cn3)nc2-c2ccc(Cl)cc2Cl)n1 [CHIR, CHIR99021], the “expression of CDX2” value ([1]; CHIR at 10 μM (of 3, 10, 20 μM) in medium B) was “highest expression”, the “expression of AFP” value ([1]; CHIR at 10 μM in medium B) was “low expressions” and the “expression of PDX1” value ([1]; CHIR at 10 μM in medium B) was “low expressions”.
For O=C1NC(=O)C(c2cnc3ccccn23)=C1c1cn2c3c(cc(F)cc13)CN(C(=O)N1CCCCC1)CC2 [LY, LY2090314], the “expression of CDX2” value ([1]; LY at 20 nM (of 3, 10, 20, 30 nM) in medium B) was “highest expression”, the “expression of AFP (hepatic progenitor cell marker)” value ([1]; LY at 20 nM in medium B) was “low expressions” and the “expression of PDX1” value ([1]; LY at 20 nM in medium B) was “low expressions”.
With O=C(NOC[C@H](O)CO)c1ccc(F)c(F)c1Nc1ccc(I)cc1F [PD, PD0325901] the CYP3A4 activity (CYP3A4 [2]) was “clearly higher value”, the “gene expression level of CYP3A4” value [3] was “clearly higher values” and the “gene expression level of MDR1” value [3] was “clearly higher values”. The “CYP3A4 activity on elimination of the factor from medium K” value (“CYP3A4 activity on elimination” below) (CYP3A4 [4]) was “greatly decreased”.
With CC1=C(/C=C/C(C)=C/C=C/C(C)=C/C(=O)O)C(C)(C)CCC1 [RA, all-trans-Retinoic Acid] the “expression level of CDX2 (intestinal progenitor cell marker)” value [1, 5] was “high expression levels” and the “expression level of PDX1 (pancreatic progenitor cell marker)” value [1, 5] was “high expression levels”.
In the case of NC(=O)c1ccc(-c2nc(-c3ccc4c(c3)OCO4)c(-c3ccccn3)[nH]2)cc1 [SB431542], the “CYP3A4 activity on elimination” value (CYP3A4 [4]) is reported as “significantly increased”.
With C=C1/C(=C\C=C2/CCC[C@]3(C)[C@@H]([C@H](C)CCCC(C)(C)O)CC[C@@H]23)C[C@@H](O)C[C@@H]1O [Vitamin D3, 1α,25-Dihydroxyvitamin D3] the “CYP3A4 activity on elimination” value (CYP3A4 [4]; ELC monolayer (day 27 2D K), 6 days in medium K without the factor) was “greatly decreased”.
With “EGF: Epidermal growth factor, component of medium K” the “CYP3A4 activity on elimination” value (CYP3A4 [4]) was “significantly increased” and the “P-gp activity on elimination of the factor from medium K” value (P-gp) was “no influence”.
